{"source": "patent US12104173B2", "about": "“Method for differentiation of human pluripotent stem cell lines in suspension culture” (AGENCY FOR SCIENCE, TECHNOLOGY AND RESEARCH, priority 2018, dated 2024)", "type_in_all_cases": "cell-based, human", "key": {"[1]": {"system": "BR7 O-neg hiPSC line", "assay": "CHIR dose: hematopoietic/erythroid differentiation of agitated hPSC-MC aggregates", "settings": "for Erythroblast expansion Fold-expansion: optimal dose of CHIR-99021, 24 days in erythroblast expansion medium (static), cumulative", "protocol": "Human pluripotent stem cell-microcarrier (HPSC-MC) aggregates generated from different hPSC lines were differentiated using 3 different CHIR doses (5, 10 and 15 μM for 24 hours) and were evaluated for T-bra (day 2) and KDR+PDGFRβ− (day 4) expression by flow cytometry, induction of key hematopoietic transcription factors by RT-PCR (day 4), hematopoietic precursor expansion (day 14) and erythroblast expansion (day 42).\nTable 2—Hematopoietic differentiation of nine human pluripotent stem cell (hPSC) lines, from expansion in agitated microcarrier culture to erythroblast expansion—This table summarises the different stages of differentiation; hPSC expansion, mesoderm induction, hematopoietic precursor and erythroblast expansion of multiple hPSC-MC aggregate lines differentiated with optimal dose of CHIR-99021. Fold-expansion of hPSC-MC aggregates following 7 days of agitated culture, hematopoietic precursors following 14 days of culture in methylcellulose medium and erythroblast expansion following 24 days in expansion medium are reported. Flow cytometric evaluation of % T-bra+ cells on day 2 and % KDR+ cells on day 4 during mesoderm induction, % CD43+ cells during hematopoietic precursor expansion, % CD235a+ cells and fetal hemoglobin expression during erythroblast expansion stage are summarised. Total erythroid cells per hPSC seeded on day 42 was calculated as number of embryoid bodies derived on day 4 per hPSC seeded*erythroblast fold expansion*percent CD235a+ erythroblast.\nAnalysis of Design of experiments (DoE) outcomes and evaluation of selected conditions generated by the MODDE® software allowed the development of an optimized protocol for hematopoietic mesoderm induction of human pluripotent stem cell-microcarrier (hPSC-MC) aggregates initially expanded under continuous agitation. Approximately 2 to 4 million hPSC-MC aggregates in 3 ml of Stemline® II medium were differentiated as follows: day 1; 30 ng/ml of BMP4, 50 ng/ml VEGF165, 12 μM CHIR-99021 (Selleck Chemicals, USA), 50 ng/ml Activin A, day 2; 30 ng/ml of BMP4, 50 ng/ml VEGF165, 50 ng/ml Activin A, day 3: 30 ng/ml of BMP4, 50 ng/ml VEGF165 and 20 ng/ml bFGF. Four days post-differentiation, single cells derived by TrypLE™ Express (ThermoFisher Scientific) treatment and strained through 40 μm cell strainers (Greiner Bio-one, Germany) were used for hematopoietic precursor and erythroblast expansion and erythroblast terminal maturation as detailed herein. Hematopoietic and erythroblast differentiation were monitored by flow cytometry, quantitative real-time PCR, immunoblotting and microscopic imaging. Oxygen binding affinity of differentiated erythroblast was determined using a Hemox Analyzer (TCS Scientific Corp, USA).\nHPSC-MC aggregates were dissociated into single cells by treatment with TrypLE. Express (ThermoFisher Scientific) for 5 minutes at 37° C., passed through 40 μm cell strainer (Greiner Bio-one), centrifuged at 1300 rpm for 3 minutes to pellet cells, and rinsed once with phosphate buffered saline (PBS) before re-suspension in Stemline II medium. Two hundred thousand cells in 100 μl of Stemline II medium were transferred to a 6-well ultra-low attachment plate and cultured with Blast growth medium (BGM) for 2 weeks in static conditions as detailed herein.\nHematopoietic precursors were mixed with equal volume of Stemline II medium containing 50 ng/ml of SCF (STEMCELL. Technologies) and 3 U/ml EPO (Peprotech, USA), for an additional 7 days. Subsequently, cells were diluted 10-fold with PBS and pelleted by centrifugation at 3000 rpm for 10 minutes. […]"}, "[2]": {"system": "hES-3 microcarrier aggregates", "assay": "capillary Western blot of Wnt/β-catenin signalling proteins", "settings": "hES-3-MC; upon induction with CHIR (15 μM CHIR, 30 ng/ml BMP4, 40 ng/ml Activin A)", "protocol": "Day 7 hES-3-MC aggregates from static or agitation conditions were subjected to differentiation using BMP4 protocol (50 ng/ml BMP4) or optimized CHIR-based protocol (30 ng/ml BMP4, 40 ng/ml Activin A and 15 μM CHIR). Cell lysates before start of differentiation (0 hours) and 24 hours after onset of differentiation were analysed for proteins involved in Wnt/β-catenin signalling (T-BRA, TCF-1 and LEF-1) and BMP4 signalling (SMAD7, SMAD1 and phospho SMAD1/5) using an automated Capillary Western Blot system (Peggy Sue). All samples including GAPDH as a protein loading control were run in parallel. (A) is an image showing digitalized chemiluminescence signals represented as band intensities. Corresponding molecular weight of detected proteins are indicated. […] Graphical representation of chemiluminescence intensity of proteins (expressed as a percentage of GAPDH expression) involved in (B) Wnt/β-catenin signalling and (C) BMP4 signalling. […]\nCapillary Western blot was performed using a fully automated system, Peggy Sue (Proteinsimple, R&D, USA). Proteins were separated, detected and quantified according to manufacturer's protocol (www.proteinsimple.com) based on size separation (12-230 kDa). […] (all from Cell Signaling Technology)[1:50 diluted SMAD7 (Sigma-Aldrich)] followed by horseradish peroxidase conjugated secondary antibody and detected with Luminol/Peroxidase substrate. […]"}, "[3]": {"system": "D5 O-neg hiPSC line", "assay": "CHIR dose: hematopoietic/erythroid differentiation of agitated hPSC-MC aggregates", "settings": "optimal dose of CHIR-99021, day 4"}, "[4]": {"system": "X13 O-neg hiPSC line", "assay": "CHIR dose: hematopoietic/erythroid differentiation of agitated hPSC-MC aggregates", "settings": "optimal dose of CHIR-99021, day 4"}, "[5]": {"system": "BR7 O-neg hiPSC line", "assay": "CHIR dose: hematopoietic/erythroid differentiation of agitated hPSC-MC aggregates", "settings": "optimal dose of CHIR-99021, day 4"}, "[6]": {"system": "hES-3 hESC line", "assay": "CHIR dose: hematopoietic/erythroid differentiation of agitated hPSC-MC aggregates", "settings": "optimal dose of CHIR-99021, day 4"}}}
{"smiles": "Cc1c[nH]c(-c2cnc(NCCNc3ccc(C#N)cn3)nc2-c2ccc(Cl)cc2Cl)n1", "note": "[CHIR-99021, 6-[[2-[[4-(2,4-Dichlorophenyl)-5-(5-methyl-1H-imidazol-2-yl)-2-pyrimidinyl]amino]ethyl]amino]-3-pyridinecarbonitrile]", "values": [{"measurement": "fold-expansion of hematopoietic precursors", "setting": "[1]; 15 μM CHIR dose, day 14 post differentiation", "result": "5.81±0.92", "unit": "fold"}, {"measurement": "T-Bra+ cells", "setting": "[1]; 15 μM CHIR for 24 hours, day 2, flow cytometry", "result": "20.8±3.8", "unit": "%"}, {"measurement": "KDR+PDGFRβ- cells", "setting": "[1]; 15 μM CHIR for 24 hours, day 4, flow cytometry", "result": "18.6±1.57", "unit": "%"}, {"measurement": "Total erythroid cells per hPSC seeded (day 42)", "setting": "[1]; optimal dose of CHIR-99021", "result": 12}, {"measurement": "Hematopoietic precursor expansion % CD43", "setting": "[1]; optimal dose of CHIR-99021, 14 days in methyl cellulose medium", "result": 14.3, "unit": "%"}, {"measurement": "Hematopoietic precursor expansion Fold-expansion", "setting": "[1]; optimal dose of CHIR-99021, 14 days in methyl cellulose medium (static)", "result": 5.8, "unit": "fold"}, {"measurement": "Erythroblast expansion Fold-expansion", "setting": "[1]; day 42", "result": 31.5, "unit": "fold"}, {"measurement": "Erythroblast expansion Fold-expansion", "setting": "[1]; day 42, listed as CHIR", "result": "31.48±7.7", "unit": "fold"}, {"measurement": "Mesoderm induction % T-Bra", "setting": "[1]; optimal dose of CHIR-99021, day 2", "result": 20.8, "unit": "%"}, {"measurement": "Erythroblast expansion % CD235a+", "setting": "[1]; optimal dose of CHIR-99021, erythroblast expansion stage", "result": 33.8, "unit": "%"}, {"measurement": "Erythroblast expansion Hemoglobin expression", "setting": "[1]; optimal dose of CHIR-99021, fetal hemoglobin, flow cytometry", "result": 95.5}, {"measurement": "Wnt/β-catenin signalling proteins TCF-1, LEF-1 and T-BRA", "setting": "[2]", "result": "detected as early as 24 hours"}, {"measurement": "Mesoderm induction % KDR+ PDGFRα−", "setting": "[3]", "result": 35.8, "unit": "%"}, {"measurement": "Mesoderm induction % KDR+ PDGFRα−", "setting": "[4]", "result": 40.8, "unit": "%"}, {"measurement": "Mesoderm induction % KDR+ PDGFRα−", "setting": "[5]", "result": 18.6, "unit": "%"}, {"measurement": "Mesoderm induction % KDR+ PDGFRα−", "setting": "[6]", "result": 14.6, "unit": "%"}]}
